No end group written: not given here.
Columns and labels:
[1] = Body weight and whole body composition (MR scanning) in DIO rats; format: in vivo, rat; conditions: for change in body weight: once daily oral, Calcitonin 2 mg/kg/day with 5-CNAC 150 mg/kg/day, or 5-CNAC 150 mg/kg/day alone; for increase in fat content (MR analysis): CT 2 mg/kg/day with 5-CNAC
Method: (§1) A total of 48 selectively bred male DIO rats were used. At the beginning of the experiment, the animals had reached an age of 35 weeks, out of which 31 weeks were on high-fat diet.
(§2) At day −7, 21 and 42 fasted serum and urine samples were collected and whole body tissue composition was evaluated by MR scanning. At day 42, an oral glucose tolerance test (OGTT) was performed to evaluate glucose homeostasis in the rats. At day −1 the animals were stratified according to weight and whole body fat mass (assessed by a 4-in-1 EchoMRI scanner) to the different treatment groups. The groups were randomized in three teams by body weight.
First day of dosing was day 0. Animals were dosed per oral 5 ml/kg. The compound solution was administered once daily at 7:00 AM-2:00 PM during the whole study (0-42 days) per oral gavage using a gastric tube connected to a 5 ml syringe (luer lock™. Becton).
To assess the distribution of the gained weight during the treatment program the animals were subjected to MR analysis after termination. Two parameters were investigated: 1) change in fatty mass and, 2) change in total water content.

DIO rats = assay: Oral glucose tolerance test (OGTT) in DIO rats; format: in vivo, rat; conditions: for plasma insulin response during OGTT: peak 15 minutes after glucose, CT compared to 5-CNAC group; for maximum / peak blood glucose level during OGTT: reached 15 minutes after OGTT (CT), at 60 minutes (5-CNAC)
Method: as §1, §2
First day of dosing was day 0. Animals were dosed per oral 5 ml/kg.
In order to test the glucose handling in different treatment groups, an oral glucose tolerance test (OGTT) was performed.

Sprague Dawley rats = assay: OGTT in healthy lean Sprague Dawley rats; format: in vivo, rat
Method: The rats were treated bi daily for 5 weeks using the same dose as in the DIO rats.

[2] = Weight gain in normal Sprague-Dawley rats; format: in vivo, rat; conditions: twice daily oral, salmon calcitonin 2 mg/kg/day with 5-CNAC 150 mg/kg/day, 8 weeks, vs control group
Method: (§3) A total of 40 rats were divided into 4 groups, two bilateral ovariectomy (OVX) groups and two normal groups.
(§4) The first day of dosing was day 0. Animals were dosed per oral 5 ml/kg. The compound solution was administered twice daily, the first dose at 7:00 AM and the second dose 8 hours later (between 3 and 4 PM) during the whole study. The dosing was done by oral gavage using a gastric tube connected to a 5 ml syringe. Feeding was ad libitum.

[3] = Ovariectomy (OVX)-induced weight gain in Sprague-Dawley rats; format: in vivo, rat
Method: as §3, §4
A total of 20 rats were bilaterally ovariectomized (OVX). The animals were treated once daily with either 5-CNAC 150 mg/kg/day alone or that amount of 5-CNAC in combination with Calcitonin 2 mg/kg/day for 8 weeks during which the weight was monitored once a week. Feeding was again ad libitum.
The first day of dosing was day 0. Animals were dosed per oral 5 ml/kg. The compound solution was administered once daily between 7:00 and 8:00 AM during the whole study per oral gavage using a gastric tube connected to a 5 ml syringe.

CTX-II = assay: Serum CTX-II after oral dosing in fasted rats; format: in vivo, rat; conditions: sCT 2 mg/kg, carrier 150 mg/kg
Method: Fasted rats were treated with oral doses of carrier alone (5-CNAC or SNAC), sCT alone or sCT in combination with carrier (5-CNAC or SNAC). Blood sampling was conducted at baseline, one, three and six hours after oral dosing, and serum was isolated. Concentrations of CTX-II were subsequently measured in the serum samples.
Rats were randomized according to weight into five groups and fasted over night. […] Blood samples were taken from tail vein at baseline, one, three and six hours after oral dosing. Serum was isolated from the blood samples and CTX-II concentrations were measured in undiluted serum samples. […] Each group contained 6 animals. Statistical analyses were conducted with one-way ANOVA and Bonferroni's Multiple Comparison Test to adjust for multiple tests. Error bars indicate standard error of mean (SEM). Asterisks indicate: **=p<0.01, ***=p<0.001.

[4] = rabbits, injection, 600 MRC U per month or 50 MRC U single dose; cited from earlier work
[5] = rats, intracerebroventricular administration; cited from earlier work
rat hepatocytes = conditions: cited from earlier work
[6] = cited from earlier work; for fasting plasma glucose: rats and mice, intravenous bolus injection
[7] = cited from earlier work; for glucose levels: fasting animals, parenterally administered
[8] = rats or mice, cited from earlier work
[9] = rhesus monkeys, parenteral, 5 day administration period; cited from earlier work
[10] = healthy volunteers, intramuscular; cited from earlier work
[11] = latent diabetes in humans, infusion; cited from earlier work
[12] = insulin dependent diabetic patients, intravenous infusion; cited from earlier work
[13] = Paget's disease of the bone patients, injection; cited from earlier work
[14] = intra-muscular, cited from earlier work
[15] = cited from earlier work
[16] = 100 MRC units per day, 2 months, cited from earlier work
[17] = i.m. 100 MRC units twice daily, 15 days; cited from earlier work
[18] = 62.26 pmol/kg, patients with a duodenal ulcer; cited from earlier work
[19] = rats fed a high fat diet, delivered by osmotic pump; cited from earlier work
[20] = cited from earlier work; remark: listed apart in the source
[21] = 100 U by i.v. infusion; cited from earlier work
[22] = healthy test persons, infusion; cited from earlier work

## O=C(O)CCCCCCCNC(=O)c1cc(Cl)ccc1O [5-CNAC, N-(5-chlorosalicyloyl)-8-aminocaprylic acid]
[1]
  change in body weight: Neither the CT treated group nor the 5-CNAC group display any change in their body weight
DIO rats
  plasma insulin response during OGTT: the levels stay in the hyperinsulinaemic state throughout the OGTT
  maximum / peak blood glucose level during OGTT: 9.8 mM

## Salmon calcitonin [CT]
[1]; compared to 5-CNAC and vehicle groups
  increase in fat content (MR analysis): a significant increase compared to the 5-CNAC and vehicle groups
[1]; compared to rosiglitazone group, p<0.0001
  increase in fat content (MR analysis): significantly lower increase in the fat content compared to rosiglitazone group
[1]
  change in body weight: Neither the CT treated group nor the 5-CNAC group display any change in their body weight
DIO rats
  AUC of change in insulin levels during OGTT: lowest change in insulin levels
  AUC of net change in plasma glucose (glucose clearance during OGTT): significantly increased glucose clearance during the OGTT
  plasma insulin response during OGTT: attenuated insulin response
  maximum / peak blood glucose level during OGTT: 8.2 mM
DIO rats; CT compared to Rosiglitazone groups
  effect on AUC of change in glucose: markedly larger than the changes seen in the Rosiglitazone groups
DIO rats; CT treated compared to 5CNAC group
  peak glucose levels during OGTT: strongly reduced peak glucose levels
DIO rats; OGTT
  basal insulin level to which insulin returns after the peak: 4.53 µg/L
Sprague Dawley rats
  AUC of change in glucose during OGTT: potently reduces glucose levels
  increase of insulin level in response to OGTT: approximately 0.5 μg/L
Sprague Dawley rats; OGTT
  time until insulin level returned to basal: 60 min
Sprague Dawley rats; between groups, p=0.08
  AUC of change in insulin levels during OGTT: the AUC of change is significant between the groups
Sprague Dawley rats; treated bi daily for 5 weeks, same dose as in DIO rats
  basal glucose levels: lowered basal glucose levels
Sprague Dawley rats; vs vehicle (5-CNAC) group
  peak glucose level during OGTT: prevented this drastic peak
[2]
  natural weight gain: reduction of the natural weight gain
[3]; once daily oral, 8 weeks
  OVX-induced weight gain: does not protect against OVX-induced weight gain
[3]; twice daily oral, 7 weeks
  OVX-induced increase in bodyweight: protected partially against the OVX-induced increase in bodyweight
CTX-II; one hour after oral dosing, vs carrier alone
  serum CTX-II concentration: significantly lowered the CTX-II concentration
CTX-II; three and six hours after oral dosing
  serum CTX-II concentration: return to the baseline level
[4]
  glucose level measured after fasting: marked decrease in glucose level
[5]
  glucose stimulated release of insulin: increased glucose stimulated release of insulin
Rat hepatocytes
  effect on rat hepatocytes and other cells: little effect
[6]
  fasting plasma glucose: elevation of fasting plasma glucose
[7]
  glucose levels: a rise in glucose levels
[8]; acute parenteral administration
  short term food intake: potently induced reduction in short term food intake
[8]; parenteral
  duration of the effect on food intake: 3 days
[9]
  food intake: reduce food intake in rhesus monkeys throughout a 5 day administration period
[10]
  blood glucose during a morning fast and glucose tolerance test: inhibited decrease of blood glucose during a morning fast and impaired a glucose tolerance test
[11]
  serum level of insulin and blood sugar: reducing the serum level of insulin and increasing the blood sugar
[12]
  glucose rise in arginine tolerance test: abolished the glucose rise normally seen in an arginine tolerance test
[13]
  serum glucose and serum insulin: a moderate immediate rise in serum glucose and a slight decrease in serum insulin
[14]; humans
  integrated glucose areas under plasma glucose curves: approximately doubling
[14]; normal humans
  response to a glucose tolerance test: a deterioration in response to a glucose tolerance test
[15]; insulin dependent diabetics
  glucose level and glucagon: a fall in glucose level along with the fall in glucagon
[15]; normal human volunteers, infused
  circulating glucagon and serum insulin: a fall in circulating glucagon levels and a fall in serum insulin
[16]; Paget's disease or osteoporosis patients
  glucose tolerance: Glucose tolerance did not deteriorate significantly
[16]
  basal plasma glucose: significant increase in basal plasma glucose
[17]
  carbohydrate metabolism after a mixed meal stimulus: not seen to cause appreciable change in carbohydrate metabolism
[18]
  post-prandial insulin release: post-prandial insulin release was abolished

## amylin (KCNTATCATQRLANFLVHSSNNFGAILSSTNVGSNTY; not fully specified (C-terminus, bridges); cysteine pairing not given here; UniProt P10997 34-70, looked up) [calcitonin family peptide hormone, literature results]
[19]
  weight gain: caused a reduction in weight gain
Rat hepatocytes
  effect on rat hepatocytes and other cells: little effect
[7]
  glucose levels: a rise in glucose levels
[7]; rats, parenterally administered shortly before the test
  rise in glucose in oral glucose tolerance test: reduced the rise in glucose
[20]; in the absence of a meal
  plasma glucose: associated with a rise in plasma glucose in rodents, but not in humans
[20]; in the context of a meal, rats, dogs and humans
  rise in plasma glucose: suppressed a rise in plasma glucose

## calcitonin
[6]; hypoglycaemic rat, compared to glucagon
  glycemic recovery: a greater glycemic recovery than glucagon
[21]
  glycaemia in the course of an OGTT: a persistence of hyperglycaemia
  insulin secretion: An inhibitory action of calcitonin on insulin secretion was also observed

## human calcitonin (CGNLSTCMLGTYTQDFNKFHTFPQTAIGVGAP; ends and bridges not checked; cysteine pairing not given here; listed as Homo sapiens)
[22]
  glucose assimilation and insulin output: significant impairment of glucose assimilation and insulin output
[13]
  serum glucose and serum insulin: a moderate immediate rise in serum glucose and a slight decrease in serum insulin

## rat calcitonin (CGNLSTCMLGTYTQDLNKFHTFPQTSIGVGAP; ends and bridges not checked; cysteine pairing not given here)
Rat hepatocytes
  effect on rat hepatocytes and other cells: little effect
[6]
  fasting plasma glucose: a lesser effect
